From patent publication US20210322297A9, “COSMETIC COMPOSITIONS FOR PROTECTION AGAINST LIGHT-INDUCED DAMAGES” (priority 2018, published 2021)
“And” between values parts separate entries of the source, which are not always exact repeats. Equal entries are not always repeated.

Test system: Human keratinocytes (HaCAT)
Test: Carbonyl Score analysis: blue light (460 nm)-induced protein oxidative damage (carbonylation)
Type: cell-based
From the text: Human keratinocytes (HaCAT) were irradiated in the presence or absence of a composition (C-1) comprising equal weight amounts of extracts (Q), (GS) and (GT) (VitakeloxTM) using an irradiation system available from OxiProteomics®. A solution of N-acetyl-cysteine was used as positive control of protection. Just after irradiation, proteins were extracted from the cells and analyzed. Carbonylated proteins were labeled with specific functionalized fluorescent probes and the resulting samples were resolved by high-resolution electrophoresis. Total proteins were post-stained with SyproTM Ruby protein gel stain. A Carbonyl (protein damage) Score was obtained for each sample after normalization of the fluorescent signal for carbonylated proteins by total proteins. A significant increase in protein oxidative damage was observed upon blue light irradiation. This increase was prevented in the presence of composition (C-1) at two different concentrations (0.01% and 0.005% w/v) and with two times of treatment (6 hours and 24 hours). HaCaT cells were cultured in calcium-free DMEM (Dulbecco's Modified Eagle Medium), with 10% SVF […], at 37° C. and humid atmosphere, supplemented with 5% CO2. Cells were seeded (500.000 cells/well) at day 0 (D0) in multi-well plates containing culture medium and distributed in 8 experimental groups as depicted in Table 1. On day 1 (D1), two solutions of composition (C-1) having two different concentrations (0.01% and 0.005%) were prepared by solubilisation of the composition in the culture medium. Experimental groups 4 and 6 were incubated for 24 hours (t2) with the solutions prior to irradiation. At day 2 (D2), experimental groups 3 and 5 were incubated for 6 hours (t1) prior to blue light irradiation. Groups 7 and 8 were incubated with a solution of NAC (N-acetyl-cysteine) for 6 and 24 hours. On day 2 (D2), the cells were washed and a stress was induced by irradiation with Blue Light (LED source, emission peak at λ=460 nm), using an OxiProteomics® irradiation system. Group 1 was not irradiated. Just after irradiation, cells were collected, snap-frozen and stored at -80° C. for the analysis. Proteins were extracted from cells, quantified by the Bradford method and split into equal amounts for analyses. […] After extraction and solubilisation, proteins in samples were quantified by the Bradford method using calibrated BSA (bovine serum albumin) as standard (Bradford M. Anal. Biochem., 72, 248, 1976). […] Proteins were fixed to the gel and the carbonylated proteins were evidenced by fluorescence scanning. […] Quantification was obtained from each sample, both for carbonylated and total proteins. […]

## CC(=O)N[C@@H](CS)C(=O)O [NAC, N-acetyl-cysteine]
NAC 6 h incubation before blue light irradiation, group G-7, carbonylated signal normalized by total protein signal
  Carbonyl Score: 0.734 and 0.742 and 0.657
NAC 6 h incubation before blue light irradiation, group G-7, densitometric signal per replicate
  Oxidized proteins: 12101.36 and 11379.65 and 10415.94
NAC 24 h incubation before blue light irradiation, group G-8, carbonylated signal normalized by total protein signal
  Carbonyl Score: 0.639 and 0.700 and 0.631
NAC 24 h incubation before blue light irradiation, group G-8, densitometric signal per replicate
  Oxidized proteins: 9126.82 and 11501.94 and 10859.53
